The numbers were not newly measured in patent US20110145936A1, “Genetically Modified Rat Models for Pharmacokinetics” (priority 2009, published 2011), which cites them from elsewhere.

For one data set, the target named is T1, Slc7a11 (Homo sapiens, UniProt Q9UPY5).
T1 sequence (Q9UPY5 1-501): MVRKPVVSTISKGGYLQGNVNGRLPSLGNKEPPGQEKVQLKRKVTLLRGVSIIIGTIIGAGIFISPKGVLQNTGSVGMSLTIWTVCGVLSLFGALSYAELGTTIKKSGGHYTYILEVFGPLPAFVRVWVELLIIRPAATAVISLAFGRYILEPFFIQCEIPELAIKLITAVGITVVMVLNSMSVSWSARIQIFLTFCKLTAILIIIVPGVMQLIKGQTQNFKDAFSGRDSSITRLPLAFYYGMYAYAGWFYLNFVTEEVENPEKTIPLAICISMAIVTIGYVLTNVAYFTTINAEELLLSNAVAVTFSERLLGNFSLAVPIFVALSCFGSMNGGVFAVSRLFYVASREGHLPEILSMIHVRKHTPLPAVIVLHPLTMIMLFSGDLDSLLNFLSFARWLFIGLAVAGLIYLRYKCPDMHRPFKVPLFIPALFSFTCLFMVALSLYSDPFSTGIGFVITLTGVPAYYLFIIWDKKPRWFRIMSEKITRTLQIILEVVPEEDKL
T1 sequence (P08195 1-529 partner): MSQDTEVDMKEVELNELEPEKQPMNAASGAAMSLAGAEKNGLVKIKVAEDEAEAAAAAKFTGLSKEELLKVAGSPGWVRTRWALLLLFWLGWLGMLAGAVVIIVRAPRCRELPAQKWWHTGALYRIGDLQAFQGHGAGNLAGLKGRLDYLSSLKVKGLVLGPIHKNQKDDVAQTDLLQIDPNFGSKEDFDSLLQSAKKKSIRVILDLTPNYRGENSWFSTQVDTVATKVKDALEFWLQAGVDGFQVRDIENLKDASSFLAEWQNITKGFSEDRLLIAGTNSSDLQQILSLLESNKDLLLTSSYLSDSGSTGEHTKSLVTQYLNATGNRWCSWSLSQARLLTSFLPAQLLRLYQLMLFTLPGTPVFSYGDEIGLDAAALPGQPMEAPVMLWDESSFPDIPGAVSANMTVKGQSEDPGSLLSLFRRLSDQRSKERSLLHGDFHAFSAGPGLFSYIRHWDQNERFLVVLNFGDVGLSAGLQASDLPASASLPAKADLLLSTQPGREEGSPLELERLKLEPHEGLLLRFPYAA
Particulars: WT Slc7a11 cells; more sensitive to the GA analog.

For another data set, the target named is Abcc1 (Mus musculus, UniProt O35379). The following applies: for white blood cell, bone marrow nucleated cell and spleen myeloid activity: Abcc1 KO mice after etoposide.
Sequence of Abcc1 (O35379 whole entry): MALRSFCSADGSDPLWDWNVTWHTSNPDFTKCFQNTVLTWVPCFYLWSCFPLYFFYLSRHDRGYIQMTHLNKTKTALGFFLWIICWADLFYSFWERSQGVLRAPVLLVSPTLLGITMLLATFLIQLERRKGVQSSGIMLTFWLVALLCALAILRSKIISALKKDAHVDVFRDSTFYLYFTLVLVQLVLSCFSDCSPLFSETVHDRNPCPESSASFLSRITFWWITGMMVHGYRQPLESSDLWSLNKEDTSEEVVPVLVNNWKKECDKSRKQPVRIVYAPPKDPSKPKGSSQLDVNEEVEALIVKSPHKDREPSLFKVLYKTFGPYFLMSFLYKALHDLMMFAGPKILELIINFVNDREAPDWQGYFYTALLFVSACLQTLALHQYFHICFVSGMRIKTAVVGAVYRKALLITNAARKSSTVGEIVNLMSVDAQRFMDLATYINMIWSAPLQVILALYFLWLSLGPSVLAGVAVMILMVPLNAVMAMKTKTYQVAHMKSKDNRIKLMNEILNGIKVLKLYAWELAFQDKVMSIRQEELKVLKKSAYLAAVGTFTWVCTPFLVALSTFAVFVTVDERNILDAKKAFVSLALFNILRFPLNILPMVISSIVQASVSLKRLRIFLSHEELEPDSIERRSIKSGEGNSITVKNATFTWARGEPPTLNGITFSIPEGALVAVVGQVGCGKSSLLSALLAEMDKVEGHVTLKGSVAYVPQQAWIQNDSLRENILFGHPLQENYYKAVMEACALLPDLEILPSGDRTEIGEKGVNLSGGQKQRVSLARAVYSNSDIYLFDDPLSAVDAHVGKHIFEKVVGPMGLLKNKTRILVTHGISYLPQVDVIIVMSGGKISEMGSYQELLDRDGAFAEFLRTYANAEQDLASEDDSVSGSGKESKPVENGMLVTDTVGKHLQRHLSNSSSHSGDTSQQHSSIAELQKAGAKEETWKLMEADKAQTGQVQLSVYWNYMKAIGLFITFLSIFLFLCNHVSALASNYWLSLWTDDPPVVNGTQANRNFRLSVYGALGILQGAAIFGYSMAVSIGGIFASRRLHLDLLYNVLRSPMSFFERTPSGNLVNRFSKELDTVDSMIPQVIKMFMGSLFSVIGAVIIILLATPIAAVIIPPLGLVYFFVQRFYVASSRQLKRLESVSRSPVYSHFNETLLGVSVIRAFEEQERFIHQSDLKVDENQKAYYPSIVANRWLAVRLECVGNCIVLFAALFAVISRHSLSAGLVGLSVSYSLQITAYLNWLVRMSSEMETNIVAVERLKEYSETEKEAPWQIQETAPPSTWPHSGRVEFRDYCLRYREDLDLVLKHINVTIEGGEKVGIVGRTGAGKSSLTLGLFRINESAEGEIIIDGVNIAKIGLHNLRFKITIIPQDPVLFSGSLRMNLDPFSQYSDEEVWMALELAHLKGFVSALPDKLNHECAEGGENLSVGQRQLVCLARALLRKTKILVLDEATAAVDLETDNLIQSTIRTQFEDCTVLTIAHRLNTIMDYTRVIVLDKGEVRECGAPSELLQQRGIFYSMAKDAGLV
The next data set has as its system Abcb1. Particulars: for direct liver mediated excretion: Abcb1-/- vs WT mice, cannulation of the gall bladder.
Data set [1] has as its system leukemia cell lines which express high levels of Slc29a1. The following applies: graded levels of azacytidine in the presence of a tight binding Slc29a1 inhibitor.
The target in a further data set is Slc22a8 (Mus musculus, UniProt Q9WTW5). Particulars: gene Slc22a8.
Sequence of Slc22a8 (Q9WTW5 whole entry): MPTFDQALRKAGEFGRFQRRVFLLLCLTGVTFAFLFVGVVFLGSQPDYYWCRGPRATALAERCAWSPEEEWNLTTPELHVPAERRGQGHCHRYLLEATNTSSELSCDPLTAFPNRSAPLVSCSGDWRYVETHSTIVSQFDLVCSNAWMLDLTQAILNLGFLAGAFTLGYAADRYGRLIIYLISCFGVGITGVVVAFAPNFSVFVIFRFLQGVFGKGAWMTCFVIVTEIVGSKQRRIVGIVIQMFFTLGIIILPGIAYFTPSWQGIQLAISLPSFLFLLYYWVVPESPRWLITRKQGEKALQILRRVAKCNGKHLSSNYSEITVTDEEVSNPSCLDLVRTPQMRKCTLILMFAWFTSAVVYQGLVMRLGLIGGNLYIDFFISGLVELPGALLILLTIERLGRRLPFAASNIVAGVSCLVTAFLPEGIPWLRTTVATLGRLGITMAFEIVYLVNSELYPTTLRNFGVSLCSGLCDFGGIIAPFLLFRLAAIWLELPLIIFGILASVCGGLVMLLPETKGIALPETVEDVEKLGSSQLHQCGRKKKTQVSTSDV
For a further data set, the target named is T2, Abcg2 (Mus musculus, UniProt Q7TMS5).
T2 construct: host or cells: whole animal: WT mice versus Abcg2-/- mice
T2 sequence (Q7TMS5 1-657): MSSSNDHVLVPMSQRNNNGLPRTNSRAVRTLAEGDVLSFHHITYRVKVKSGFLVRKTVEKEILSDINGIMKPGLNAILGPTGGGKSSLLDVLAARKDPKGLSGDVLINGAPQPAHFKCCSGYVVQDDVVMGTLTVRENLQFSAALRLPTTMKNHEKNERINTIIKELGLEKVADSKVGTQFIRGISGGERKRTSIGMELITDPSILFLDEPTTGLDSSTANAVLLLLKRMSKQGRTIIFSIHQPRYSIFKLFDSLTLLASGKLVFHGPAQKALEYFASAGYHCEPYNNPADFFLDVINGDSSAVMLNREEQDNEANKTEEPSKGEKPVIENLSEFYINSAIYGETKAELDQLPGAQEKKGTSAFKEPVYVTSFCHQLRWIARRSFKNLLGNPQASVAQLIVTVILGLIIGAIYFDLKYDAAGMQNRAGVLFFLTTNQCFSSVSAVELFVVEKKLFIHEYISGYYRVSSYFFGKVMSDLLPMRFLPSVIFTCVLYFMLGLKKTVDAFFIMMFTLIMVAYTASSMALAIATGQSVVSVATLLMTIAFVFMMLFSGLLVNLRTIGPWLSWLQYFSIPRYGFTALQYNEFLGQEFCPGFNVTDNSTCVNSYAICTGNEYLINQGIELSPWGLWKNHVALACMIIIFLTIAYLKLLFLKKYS
The following applies: Abcg2-/- mice vs WT.

The target in another data set is Abcb11 (Mus musculus, UniProt Q9QY30).
Sequence of Abcb11 (Q9QY30 whole entry): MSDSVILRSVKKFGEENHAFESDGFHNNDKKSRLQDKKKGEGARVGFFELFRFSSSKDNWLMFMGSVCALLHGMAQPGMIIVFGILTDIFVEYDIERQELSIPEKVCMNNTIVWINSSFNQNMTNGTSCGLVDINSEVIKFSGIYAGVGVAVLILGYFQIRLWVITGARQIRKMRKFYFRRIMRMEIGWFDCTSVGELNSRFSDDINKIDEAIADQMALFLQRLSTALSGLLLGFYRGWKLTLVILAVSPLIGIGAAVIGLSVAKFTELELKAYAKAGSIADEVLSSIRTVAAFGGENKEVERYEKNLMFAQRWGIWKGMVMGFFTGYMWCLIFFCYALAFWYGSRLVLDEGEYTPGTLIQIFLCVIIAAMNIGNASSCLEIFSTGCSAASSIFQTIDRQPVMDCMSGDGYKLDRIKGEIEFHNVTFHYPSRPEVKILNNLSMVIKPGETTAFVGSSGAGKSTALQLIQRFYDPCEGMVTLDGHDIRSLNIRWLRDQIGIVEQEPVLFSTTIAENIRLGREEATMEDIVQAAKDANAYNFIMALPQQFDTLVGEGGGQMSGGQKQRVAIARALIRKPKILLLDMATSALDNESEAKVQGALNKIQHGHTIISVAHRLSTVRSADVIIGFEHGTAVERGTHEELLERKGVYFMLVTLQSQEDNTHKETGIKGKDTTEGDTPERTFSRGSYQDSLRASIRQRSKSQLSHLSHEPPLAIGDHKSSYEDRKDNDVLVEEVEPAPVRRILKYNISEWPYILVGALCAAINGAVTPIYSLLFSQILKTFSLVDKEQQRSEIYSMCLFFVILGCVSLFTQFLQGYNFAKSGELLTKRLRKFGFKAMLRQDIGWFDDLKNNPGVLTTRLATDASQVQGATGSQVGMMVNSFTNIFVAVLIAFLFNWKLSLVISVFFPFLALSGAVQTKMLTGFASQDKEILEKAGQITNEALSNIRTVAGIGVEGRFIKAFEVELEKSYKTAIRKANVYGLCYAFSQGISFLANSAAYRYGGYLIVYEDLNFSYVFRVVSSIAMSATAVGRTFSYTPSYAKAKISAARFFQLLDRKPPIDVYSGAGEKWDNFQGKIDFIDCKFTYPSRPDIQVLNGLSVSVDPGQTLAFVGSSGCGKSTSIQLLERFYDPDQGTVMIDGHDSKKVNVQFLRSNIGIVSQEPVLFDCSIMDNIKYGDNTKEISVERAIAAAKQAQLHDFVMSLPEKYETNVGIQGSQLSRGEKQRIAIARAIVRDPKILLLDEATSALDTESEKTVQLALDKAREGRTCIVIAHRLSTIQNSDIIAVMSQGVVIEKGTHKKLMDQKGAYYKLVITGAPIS
The test system of another data set is Abcg2 & Abcb1. Particulars: gene Abcg2 & Abcb1.

Structures are written as SMILES.

With `C=CCNC1=C2C[C@@H](C)C[C@H](OC)[C@H](O)[C@@H](C)/C=C(\C)[C@H](OC(N)=O)[C@@H](OC)/C=C\C=C(/C)C(=O)NC(=CC1=O)C2=O` [17AAG, 17-(allyl-amino)-17 denethoxygelandomycin], at Slc7a11, the “sensitivity relative to GA” value is on record as 7.2 fold. As to `COc1cc([C@@H]2c3cc4c(cc3[C@@H](O[C@@H]3O[C@@H]5CO[C@@H](C)O[C@H]5[C@H](O)[C@H]3O)[C@H]3COC(=O)[C@H]23)OCO4)cc(OC)c1O` [Etoposide], at Abcc1, the “white blood cell, bone marrow nucleated cell and spleen myeloid activity” value was “depleted in Abcc1 mice”. For the same molecule, the Drug resistance/sensitivity result at Abcc1 (gene Abcc1) is listed as “Etoposide (S)”.

Take `C[C@H]1O[C@@H](O[C@H]2[C@@H](O)C[C@H](O[C@H]3[C@@H](O)C[C@H](O[C@H]4CC[C@@]5(C)[C@H](CC[C@@H]6[C@@H]5C[C@@H](O)[C@]5(C)[C@@H](C7=CC(=O)OC7)CC[C@]65O)C4)O[C@@H]3C)O[C@@H]2C)C[C@H](O)[C@@H]1O` [digoxin]: the “direct liver mediated excretion” value in the data set with Abcb1 is recorded as “moderate decrease”. Turning to `COc1cc([C@@H]2c3cc4c(cc3[C@@H](O[C@@H]3O[C@@H]5CO[C@@H](C)O[C@H]5[C@H](O)[C@H]3O)[C@H]3COC(=O)[C@H]23)OCO4)cc(OC)c1OP(=O)(O)O` [Etoposide phosphate], the “toxicity in transporter deficient mice compared to WT” value on Abcc1 (Abcc1-/- vs WT mice, single dose) is listed as “twice as toxic”. Moreover, the “white blood cell, bone marrow nucleated cell and spleen myeloid activity” value at Abcc1 is “severe depletion”.

`Nc1ncn([C@@H]2O[C@H](CO)[C@@H](O)[C@H]2O)c(=O)n1` [azacytidine]: the loss in cytotoxicity in data set [1] is listed as more than 10 fold.

With `NCCc1c[nH]cn1` [Histamine], the Drug resistance/sensitivity entry on Slc22a8 is given as “Histamine (S),”.

In the case of `Cn1c(N)nc2ncc(-c3ccccc3)cc21` [PhIP], on Abcg2, the concentration entry is “higher concentration” and the intestinal excretion entry is listed as “highly impaired”. As to `C[C@H](CCC(=O)NCCS(=O)(=O)O)[C@H]1CC[C@H]2[C@@H]3[C@H](O)C[C@@H]4C[C@H](O)CC[C@]4(C)[C@H]3C[C@H](O)[C@]12C` [Taurocholate], the “bile acid output increase” value at Abcb11 (WT mice after Taurocholate injection) was “output; WT mice show a 20-fold”. Moreover, at Abcb11 (WT mice after tail vein injection), the taurocholate output increase is 20 fold.

`C(=N\NC1=NCCN1)/c1c2ccccc2c(/C=N/NC2=NCCN2)c2ccccc12` [Bisantrene]: the Drug resistance/sensitivity entry in the data set with Abcg2 & Abcb1 is on record as “Taxol analog (S),”.

Take `CC(=O)O[C@H]1C(=O)[C@@]2(C)[C@H]([C@H](OC(=O)c3ccccc3)[C@]3(O)C[C@H](OC(=O)[C@H](O)[C@@H](NC(=O)c4ccccc4)c4ccccc4)C(C)=C1C3(C)C)[C@]1(OC(C)=O)CO[C@@H]1C[C@@H]2O` [paclitaxel]: the “direct liver mediated excretion” value in the data set with Abcb1 was “moderate decrease”. For the same molecule, the organ penetration result in the data set on Abcb1 (brain, ovaries, adrenal gland and intestine of Abcb1-/- mice) is on record as “increased penetration”.
